Results as given in patent US8779158B2, “Trisubstituted pyrazoles as acetylcholine receptor modulators” (Janssen Pharmaceutica NV, priority 2008, dated 2014).

Molecular target: T1, hα7-wt nAChR (Homo sapiens, UniProt P36544)
T1 construct: expressed in transfected cells
Test: Ca2+ flux imaging (FDSS) (Protocol B), potentiation of the choline response
Format: cell-based
Details: Ca2+ assay as described in D.1; for EC50: "<5" = activity did not reach a top plateau at maximal concentration; for Emax / Emax at 30 µM: read-out: % Efficacy
Protocol: Ca^2+ Flux Imaging (FDSS) (Protocol B)
• Hanks buffered saline solution (HBSS, Invitrogen, Belgium), supplemented with 10 mM HEPES (Invitrogen, Belgium), CaCl2 to a final concentration of 5 mM, 0.1% Bovine serum albumin (Sigma-Aldrich NV, Belgium). b) Calcium-Sensitive Dye—Fluo-4AM • Fluo-4AM (Molecular Probes, USA) was dissolved in DMSO containing 10% Pluronic acid (Molecular Probes, USA) to give a stock solution which was diluted in assay buffer supplemented with 5 mM probenicid (Sigma, Aldrich NV, Belgium) to give a final concentration of 2 μM. c) 384-Well Plates • Black 384 well plate black/clear plates, PDL pre-coated (Corning, Incorporated, USA) d) Calcium Flux Measurement • A Functional drug screening system (FDSS, Hamamatsu) was used to measure intracellular free-calcium flux signals. Method
Monolayers of hα7-wt nAChR-expressing cells were grown in multi-well plates, in particular black-sided, transparent bottomed 384 well plates coated with poly-D-lysine for 24 hours prior to loading with a fluorescent calcium indicator, in a particular embodiment loading with fluo-4AM for up to 120 minutes.
PAM activity was detected in real time by applying the compounds to be tested to the loaded cells along with a α7 nicotinic receptor agonist during constant monitoring of cellular fluorescence in a FDSS. Compounds giving peak fluorescent responses greater than the response due to agonist alone, were considered to be α7 nAChR PAM's. In a particular embodiment, the α7 nicotinic receptor agonist was choline, a more particular embodiment choline applied at a sub-maximal concentration of 100 μM. In a further setting of the present invention the compounds to be tested were applied prior to the α7 nicotinic receptor agonist, in a particular embodiment up to 10 minutes prior to the agonist.
A control response to choline was calculated on each plate from the difference in peak in fluorescence in wells receiving either choline or assay buffer alone. Compounds of the present invention were tested at a concentration range from 0.01 μM to 30 μM. Compounds were considered to have an interesting activity when they potentiated the choline signal at least with 200% when tested at a concentration of 30 μM (the efficacy of 100 μM choline was defined as 100% in the absence of a PAM). An EC50 (or pEC50) was determined as a concentration relating to half the maximal effect, when a clear sigmoidal curve with top plateau was obtained.

T1 sequence (P36544 23-502): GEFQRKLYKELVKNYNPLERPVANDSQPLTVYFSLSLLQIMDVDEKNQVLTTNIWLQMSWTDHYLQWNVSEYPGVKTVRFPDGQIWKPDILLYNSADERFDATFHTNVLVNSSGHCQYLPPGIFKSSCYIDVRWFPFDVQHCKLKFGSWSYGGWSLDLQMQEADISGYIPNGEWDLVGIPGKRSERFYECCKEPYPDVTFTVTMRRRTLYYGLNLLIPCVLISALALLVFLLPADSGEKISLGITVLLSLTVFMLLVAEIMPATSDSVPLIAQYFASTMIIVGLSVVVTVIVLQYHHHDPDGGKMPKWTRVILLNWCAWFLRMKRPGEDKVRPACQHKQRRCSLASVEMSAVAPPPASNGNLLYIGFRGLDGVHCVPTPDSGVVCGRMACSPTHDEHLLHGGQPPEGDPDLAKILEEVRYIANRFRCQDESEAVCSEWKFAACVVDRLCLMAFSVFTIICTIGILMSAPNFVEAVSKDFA

Row | Compound | EC50 | Emax | Emax at 30 µM
1 | Cc1cc(-c2cc(Nc3cccc(Cl)c3F)nn2CC(=O)NC2CC2)cc(C)n1 [compound 169] | 302 nM | 577% | –
2 | CN(C)C(=O)CCn1nc(Nc2ccc(F)c(F)c2)cc1-c1ccc2c(c1)OCCO2 [compound 84] | 51.3 nM | – | –
3 | CNC(=O)Cn1nc(Nc2ccc(F)c(C(F)(F)F)c2)cc1-c1ccnc(C)c1 [compound 34] | 3390 nM | – | –
4 | CCNC(=O)Cn1nc(Nc2ccc(F)c(F)c2)cc1-c1cccnc1 [compound 16] | > 10000 nM | – | –
5 | Cc1ccnc(-c2cc(Nc3ccc(F)c(F)c3)nn2C[C@H](C)O)c1 [compound 24] | 2140 nM | 300% | –
6 | CNC(=O)Cn1nc(Nc2cc(F)cc(C(F)(F)F)c2)cc1-c1ccncc1C [compound 30] | > 10000 nM | – | –
7 | Cc1cc(-c2cc(Nc3cccc(C(F)(F)F)c3)nn2CC(=O)NC2CC2)cc(C)n1 [compound 150] | 525 nM | 568% | –
8 | CCNc1cc(-c2cc(Nc3cc(F)cc(C(F)(F)F)c3)nn2C[C@H](C)O)ccn1 [compound 64] | 1410 nM | 500% | –
9 | COc1cc(Nc2cc(-c3cc(C)nc(C)c3)n(CC(=O)NC3CC3)n2)cc(C(F)(F)F)c1 [compound 138] | 617 nM | 686% | –
10 | CNC(=O)Cn1nc(Nc2cccc(OC(F)(F)F)c2)cc1-c1cc(C)nc(C)c1 [compound 129] | 933 nM | 726% | –
11 | CNC(=O)Cn1nc(Nc2ccc(F)c(C(F)(F)F)c2)cc1-c1cc(C)nc(C)c1 [compound 114] | 1150 nM | – | –
12 | CCNc1cc(-c2cc(Nc3cc(OC)cc(C(F)(F)F)c3)nn2C[C@H](C)O)ccn1 [compound 63] | 3980 nM | 700% | –
13 | Cc1cc(-c2cc(Nc3ccc(F)c(C(F)(F)F)c3)nn2C[C@H](C)O)cc(N(C)C)n1 [compound 69] | 794 nM | 400% | –
14 | Cc1cc(-c2cc(Nc3cccc(OC(F)(F)F)c3)nn2CC(=O)NC2CCC2)cc(C)n1 [compound 180] | 372 nM | 768% | –
15 | CCNC(=O)Cn1nc(Nc2cc(F)cc(C(F)(F)F)c2)cc1-c1ccncc1C [compound 31] | 2690 nM | – | –
16 | CC[C@H](O)Cn1nc(Nc2cccc(C(F)(F)F)c2)cc1-c1ccnc(COC)c1 [compound 113] | 1320 nM | – | –
17 | CN(C)C(=O)CCn1nc(Nc2cccc(F)c2)cc1-c1ccc2c(c1)OCCO2 [compound 82] | 135 nM | – | –
18 | CNC(=O)Cn1nc(Nc2cc(OC)cc(C(F)(F)F)c2)cc1-c1cc(C)nc(C)c1 [compound 105] | 3160 nM | – | –
19 | Cc1cc(-c2cc(Nc3cccc(OC(F)(F)F)c3)nn2CC(=O)NC2CC2)cc(C)n1 [compound 147] | 603 nM | 643% | –
20 | CC[C@H](O)Cn1nc(Nc2cc(OC)cc(C(F)(F)F)c2)cc1-c1ccnc(C)c1Cl [compound 115] | 1260 nM | 516% | –
21 | CNC(=O)Cn1nc(Nc2cc(OC)cc(C(F)(F)F)c2)cc1-c1ccnc(C)c1C [compound 50] | 6170 nM | 496% | –
22 | Cc1cc(-c2cc(Nc3cc(F)cc(Cl)c3)nn2CCC(=O)N(C)C)ccn1 [compound 41] | 389 nM | – | –
23 | Cc1cc(-c2cc(Nc3ccc(F)c(F)c3F)nn2CC(=O)NC2CC2)cc(C)n1 [compound 156] | 380 nM | 975% | –
24 | CNC(=O)Cn1nc(Nc2cc(F)c(F)c(F)c2)cc1-c1cccnc1 [compound 15] | > 10000 nM | – | 832%
25 | CC[C@H](O)Cn1nc(Nc2cc(F)cc(F)c2)cc1-c1ccnc(Cl)c1 [compound 47] | 437 nM | – | –
26 | Cc1cc(-c2cc(Nc3ccc(F)c(C(F)(F)F)c3)nn2CC[C@H](C)O)ccn1 [compound 49] | 1820 nM | 500% | –
27 | Cc1cc(-c2cc(Nc3cc(F)c(F)c(F)c3)nn2C[C@H](C)O)ccn1 [compound 44] | 1230 nM | 400% | –
28 | CCNC(=O)Cn1nc(Nc2cccc(OC(F)(F)F)c2)cc1-c1cc(C)nc(C)c1 [compound 139] | 646 nM | 710% | –

More lines, now with the values ahead:

Row | EC50 | Emax | Emax at 30 µM | Compound
29 | 468 nM | – | – | CCNC(=O)Cn1nc(Nc2ccc(F)c(F)c2F)cc1-c1cc(C)nc(C)c1 [compound 148]
30 | 525 nM | 927% | – | Cc1cc(-c2cc(Nc3ccc(F)c(F)c3)nn2CC(=O)NC2CC2)cc(C)n1 [compound 160]
31 | 550 nM | 627% | – | Cc1cc(-c2cc(Nc3cccc(C(F)(F)F)c3)nn2CCC(=O)N(C)C)cc(C)n1 [compound 178]
32 | > 10000 nM | – | 967% | CNC(=O)Cn1nc(Nc2cccc(C(F)(F)F)c2)cc1-c1cccnc1 [compound 13]
33 | 457 nM | 842% | – | Cc1cc(-c2cc(Nc3ccc(F)c(C(F)(F)F)c3)nn2CC(=O)NC2CC2)cc(C)n1 [compound 159]
34 | 145 nM | – | – | COc1cccc(-c2cc(Nc3ccc(F)c(F)c3)nn2CCC(=O)N(C)C)c1Cl [compound 11]
35 | > 10000 nM | – | 592% | CCNC(=O)Cn1nc(Nc2cccc(C(F)(F)F)c2)cc1-c1cccnc1 [compound 18]
36 | 324 nM | – | – | CCNC(=O)Cn1nc(Nc2ccc3c(c2)OC(F)(F)O3)cc1-c1ccc2c(c1)OCCO2 [compound 98]
37 | 219 nM | 651% | – | Cc1cc(-c2cc(Nc3ccc(F)c(C(F)(F)F)c3)nn2CC(=O)NC2CCC2)cc(C)n1 [compound 174]
38 | 955 nM | – | – | CC[C@H](O)Cn1nc(Nc2cc(OC)cc(C(F)(F)F)c2)cc1-c1ccnc(COC)c1 [compound 99]
39 | 115 nM | 793% | – | Cc1cc(-c2cc(Nc3cc(F)c(F)c(F)c3)nn2CC(=O)NC2CCC2)cc(C)n1 [compound 179]
40 | 214 nM | – | – | CCNC(=O)Cn1nc(Nc2ccc(F)c(C(F)(F)F)c2)cc1-c1ccc2c(c1)OCCO2 [compound 81]
41 | 1380 nM | 800% | – | CCNc1cc(-c2cc(Nc3ccc(F)c(C(F)(F)F)c3)nn2C[C@H](C)O)cc(C)n1 [compound 67]
42 | 1480 nM | 835% | – | CNC(=O)Cn1nc(Nc2cccc(C(F)(F)F)c2)cc1-c1cc(C)nc(C)c1 [compound 117]
43 | 1150 nM | 969% | – | CNC(=O)Cn1nc(Nc2ccc(F)c(F)c2F)cc1-c1cc(C)nc(C)c1 [compound 120]
44 | > 10000 nM | – | – | CCNc1cc(-c2cc(Nc3ccc(F)c(F)c3)nn2C[C@H](C)O)cc(C)n1 [compound 66]
45 | 240 nM | 737% | – | Cc1cc(-c2cc(Nc3ccc(F)c(C(F)(F)F)c3)nn2CCC(=O)N(C)C)cc(C)n1 [compound 161]

Row | EC50 | Emax | Emax at 30 µM | Compound
46 | 219 nM | – | – | CNC(=O)Cn1nc(Nc2ccc(F)c(C(F)(F)F)c2)cc1-c1ccc2c(c1)OCCO2 [compound 75]
47 | 933 nM | 500% | – | Cc1ccnc(-c2cc(Nc3ccc(F)c(C(F)(F)F)c3)nn2C[C@H](C)O)c1 [compound 25]
48 | > 10000 nM | – | – | CNC(=O)Cn1nc(Nc2ccc(F)c(F)c2)cc1-c1ccnc(NC)c1 [compound 61]
49 | 263 nM | 762% | – | CCNC(=O)Cn1nc(Nc2cc(F)c(F)c(F)c2)cc1-c1cc(C)nc(C)c1 [compound 167]
50 | 182 nM | – | – | Cc1cc(-c2cc(Nc3ccc(F)c(F)c3F)nn2CC(=O)NC2CCC2)cc(C)n1 [compound 182]
51 | 1780 nM | – | – | CNC(=O)Cn1nc(Nc2cc(F)cc(Cl)c2)cc1-c1ccnc(C)c1 [compound 33]
52 | 1120 nM | 500% | – | CC[C@H](O)Cn1nc(Nc2ccc(F)c(C(F)(F)F)c2)cc1-c1ccc(C)nc1 [compound 29]
53 | > 10000 nM | – | – | CNC(=O)Cn1nc(Nc2ccc3c(c2)OC(F)(F)O3)cc1-c1ccncc1C [compound 89]
54 | 204 nM | – | – | CCNC(=O)Cn1nc(Nc2cccc(OC(F)(F)F)c2)cc1-c1ccc2c(c1)OCCO2 [compound 80]
55 | 302 nM | – | – | CCNC(=O)Cn1nc(Nc2cc(F)c(F)c(F)c2)cc1-c1ccc2c(c1)OCCO2 [compound 78]
56 | 501 nM | – | – | Cc1cc(-c2cc(Nc3ccc(F)c(F)c3)nn2CCC(=O)N(C)C)cc(Cl)n1 [compound 60]
57 | 1000 nM | – | – | CCNC(=O)Cn1nc(Nc2cccc(OC(F)(F)F)c2)cc1-c1ccnc(C)c1 [compound 37]
58 | 776 nM | 409% | – | CCNc1cc(-c2cc(Nc3ccc(F)c(F)c3F)nn2C[C@H](C)O)ccn1 [compound 133]
59 | 1780 nM | 559% | – | CNC(=O)Cn1nc(Nc2cc(F)c(F)c(F)c2)cc1-c1ccnc(C)c1 [compound 109]
60 | 1120 nM | 200% | – | Cc1cc(-c2cc(Nc3cc(F)cc(Cl)c3)nn2C[C@H](C)O)ccn1 [compound 42]
61 | 1230 nM | 596% | – | Cc1cc(-c2cc(Nc3ccc(F)c(F)c3F)nn2CC(=O)NC2CC2)ccn1 [compound 116]
